Experimental findings from EP0511903B1, “Conjugate of calcitonin and polyethylene glycol” (TEVA PHARMACEUTICAL INDUSTRIES LTD., priority 1991, dated 1998) are described below.

The test system of this experiment is 2 anticorps monoclonaux reconnaissant 2 épitopes différents sur la calcitonine humaine. Briefly: Immunoradiometric assay (IRMA) for human calcitonin using 2 monoclonal antibodies. The experiment is classed as binding. The following applies: IRMA with 2 monoclonal antibodies. The text has this: Un conjugué de polyéthylène glycol aminé couplé sur l'acide aspartique de la calcitonine humaine a été synthétisé suivant la méthode décrite à l'exemple 2. On dispose d'un dosage immunoradiométrique pour la Calcitonine humaine, utilisant 2 anticorps monoclonaux reconnaissant 2 épitopes différents sur la calcitonine humaine. Par ce dosage, le dérivé PEG-NH2-CTH n'est plus reconnu qu'à 0.4 % par rapport à la calcitonine humaine. Ceci signifie qu'au moins un épitope de la calcitonine humaine se trouve masqué par le couplage en position 15 d'une molécule de PEG. Il y a donc une modification de l'antigénicité de la calcitonine, de par son couplage au PEG, qui diminue fortement sa reconnaissance par des anticorps.

Ends that are not written are not given here. amino‑PEG = not defined here

As for “PEG NH2-CThumaine: conjugué de polyéthylène glycol aminé couplé sur l'acide aspartique (position 15) de la calcitonine humaine (CGNLSTCMLGTYTQD(amino‑PEG)FNKFHTFPQTAIGVGAP; ends and bridges not checked; UniProt P01258 85-116, looked up)”, the “reconnaissance par rapport à la calcitonine humaine” value is given as 0.4%.
